Data reported in patent US20070025997A1, “Use of biomolecular targets in the treatment and visualization of brain tumors” (priority 2002, published 2007).
Entries after “also recorded” stand apart in the source; their conditions may differ. Values belong to the molecule of their own block, whether it stands above or below them.

Assays:
MMP-1, MMP-2 and MMP-9 = assay: Gelatin zymography of media of DDR1 overexpressing glioma cells (Example 1); format: cell-based, human; conditions: 20 ug/ml; 48 hrs; serum-free medium
Description: DDR1 overexpressing glioma cells reveal increased prescence of MMP-9, MMP-2 and MMP-1. Cells overexpressing DDR1a and DDR1b, DDR1 ex (extracellular domain construct) and Emmprin ex (extracellular domain construct), Ht1080 cells and human Fibroblasts, cells expressing empty vector were plated onto plates. After 24 hrs of plating, media was replaced with Serum-free medium with or without 20 ug/ml Type 1 Collagen and were incubated for 48 hrs at 37° C. Media from cells was collected and concentrated. 10 ug of media from each sample was resolved on a polyacrylamide gel (10%) containing 0.1% gelatin. Following electrophoresis, gels were washed twice with 5% Triton X-100 (30 min each). After washing, the gels were incubated for 24 h at 37° C. in the presence of 50 mM Tris-HCl, 5 mM CaCl2, 5 μM ZnCl2, pH 7.5, stained with Coomassie Brilliant Blue R-250 for 30 min and then destained. MMP-1, MMP-2 and MMP-9 production was induced by native type I collagen.

MMP-2 = assay: Gelatin zymography of conditioned media (MMP-2 activation); format: cell-based, human
Description: Zymography: Serum-free media from G140 cell lines were stimulated with Collagen type I (10 μg/mL and collected after 24 hr. In some experiments, GM6001 (25 μM, 50 μM) was added to the media. The media was mixed with Tris-Gycine SDS Sample buffer (2×) and 20 μg of protein was subjected to 10% SDS-polyacrylamide gel electrophoresis (Invitrogen, Inc.) using 0.1% gelatin. After electrophoresis, gels were incubated in 2.5% Triton X-100 (Renaturing Buffer, Invitrogen, Inc.) for 30 minutes twice to remove SDS, and replaced with 50 mM Tris-Hcl, pH 7.5 containing 0.15 M NaCl, 10 mM CaCl2, and 0.02% NaN3 (Developing Buffer, Invitrogen, Inc.) overnight and then stained with Coomassie Blue R-250 for 30 minutes.

DDR1 [1] = molecular target: T1, DDR1 (Homo sapiens, UniProt Q08345); assay: DDR1 activation in Glioma cells, anti-phosphotyrosine western blot; format: cell-based; design: DDR1 is phosphorylated as a 125 kD (full length) protein; conditions: 60 minutes, 10 ug/ml (EGF 20 ng/ml)
Description: DDR1 activation in Glioma cells. DDR1 Glioma cells were stimulated with 10 ug/ml of Type1 collagen, 10 ug/ml Vitrogen, 10 ug/ml Fibronectin and 20 ng/ml EGF for 60 minutes. After stimulation, cells were lysed in RIPA buffer and resolved a 10% polyacrylamide gel (10%) gel. Lane 1, Nonstimulates, Lane 2, Type 1 Collagen (10 ug/ml, Lane 3 stimulated with Vitrogen (10 μg/ml), Lane 4 stimulated with human Fibronectin (10 μg/ml), Lane 5 stimulated with EGF 20 ng/ml) for 60 minutes. Cell lysates were analysed by anti-phosphotyrosine (4G10, Upstate Biotechnology) panel a, anti-DDR1 (C-20, Santa Cruz Biotechnology Inc.) panel b, and anti-DDR1 N-terminal H-126 (SCBT) panel c by western blotting. […] DDR1 is proteolytically cleaved in response to ligand stimulation. A 52 kD soluble protein was detected in the media with H-126, a N-terminal anti-DDR1 antibody (panel c).
Target sequence in this assay (Q08345 19-913): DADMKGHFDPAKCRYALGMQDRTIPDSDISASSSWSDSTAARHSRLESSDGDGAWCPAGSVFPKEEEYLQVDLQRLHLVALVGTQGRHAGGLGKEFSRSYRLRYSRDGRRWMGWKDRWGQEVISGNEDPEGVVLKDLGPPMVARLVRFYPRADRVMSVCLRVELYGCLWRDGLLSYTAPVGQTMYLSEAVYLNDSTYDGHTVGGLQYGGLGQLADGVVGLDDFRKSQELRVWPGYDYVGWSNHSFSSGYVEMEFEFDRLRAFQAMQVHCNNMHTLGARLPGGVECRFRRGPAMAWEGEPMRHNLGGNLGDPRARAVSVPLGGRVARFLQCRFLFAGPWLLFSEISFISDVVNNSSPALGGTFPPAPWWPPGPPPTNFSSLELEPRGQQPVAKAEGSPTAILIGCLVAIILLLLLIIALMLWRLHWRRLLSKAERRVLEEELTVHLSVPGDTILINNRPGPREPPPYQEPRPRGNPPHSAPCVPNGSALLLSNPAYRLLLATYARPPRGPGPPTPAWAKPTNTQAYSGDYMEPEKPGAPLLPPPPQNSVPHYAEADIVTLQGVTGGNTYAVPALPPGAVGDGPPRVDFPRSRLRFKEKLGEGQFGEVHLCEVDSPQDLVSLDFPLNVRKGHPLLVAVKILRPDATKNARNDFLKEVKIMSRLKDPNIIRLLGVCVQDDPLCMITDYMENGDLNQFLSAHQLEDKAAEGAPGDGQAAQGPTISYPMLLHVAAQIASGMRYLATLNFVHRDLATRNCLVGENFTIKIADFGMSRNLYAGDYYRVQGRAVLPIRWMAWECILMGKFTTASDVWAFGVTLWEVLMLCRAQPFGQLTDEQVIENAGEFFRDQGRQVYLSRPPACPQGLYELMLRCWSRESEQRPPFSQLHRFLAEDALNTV

DDR1 [2] = molecular target: T1, DDR1; assay: DDR1 internalization, Cellomics ArrayScan; format: cell-based; design: DDR1 is phosphorylated as a 125 kD (full length) protein; conditions: human Glioma derived cells; soluble, 30 minutes
Description: Cells are rinsed once with HBSS and fixed with 3.7% neutral buffered formalin. The fixation solution is aspirated, and the plate washed with blocking buffer, and then incubated with permeabilization buffer for 10 minutes. The cells are then stained with fluorescence conjugated secondary antibody solution containing 10 ug/ml Hoechst 33342 (to stain nuclei) for 30 minutes at room temperature. Plates are washed twice, sealed, and stored in HBSS at 4 C. Images are acquired using the ArrayScan HCS system and internalized receptors quantitated using a proprietary algorithm. The algorithm measures the appearance and intensity of fluorescent receptor aggregates inside the cell. These measurements are represented as mean cytoplasmic intensity (amount of antibody-receptor complex inside the cell) and mean cytoplasmic texture (a measure of the endosome aggregates). Antibodies that trigger receptor internalization are further evaluated. Antibodies that bind to DDR1 on human glioma cells and become internalized are of particular interest. In some instances endocytosis serves as a surrogate marker for other therapeutic biologic effects, such as growth inhibition.
DDR1 internalization. Human Glioma derived were treated with soluble collagen I for 30 minutes and then stained for DDR1. The Cellomics ArrayScan fluorescent microscope instrument was used to identify and quantitate internalized DDR1 (FIG. 8).
Target sequence in this assay (Q08345 19-913): as above

DDR1 [3] = molecular target: T1, DDR1; assay: Immunoprecipitation for DDR1 phosphorylation; format: cell-based; design: expressed in transfected cells; host or cells: G140 glioma cells stably transduced with a pLEN retroviral vector carrying DDR1a or DDR1b; conditions: 10 μg/ml soluble
Description: (§1) Immunoprecipitation for DDR1 phosphorylation: Rat tail collagen type 1 was purchased from Collaborative Biomedical Products (Bedford, Mass., USA). Cells were stimulated with 10 μg/ml soluble collagen type 1 for various periods of time. Cell lysates were prepared in RIPA buffer and immunoprecipitation was performed by incubating 1000 μg of cell extracts with DDR1 (C-20) antibody overnight at 4° C. Protein A beads (Santa Cruz Biotechnology: 50 μl) were added for 1 hr; the beads were washed three times with wash buffer and aliquots of the supernatant were subjected to SDS-PAGE. The blots were probed with monoclonal anti-phosphotyrosine antibody (4G10; Upstate Biotechnology Inc.) and visualized using the enhanced chemiluminescence (ECL) system (Amersham Pharmacia Biotech, Uppsala, Sweden). The blots were stripped and reprobed with a polyclonal antibody for DDR1 (C-20). Western Blot. The blots were probed with β-actin antibody to confirm equal loading.

DDR1 [4] = assay: Immunoprecipitation for DDR1 phosphorylation; format: cell-based, human; conditions: G140 parental cells; 10 μg/ml soluble
Description: as §1

G140-DDR1a cells [5] = assay: Invasion assay through Matrigel-coated Fluoroblok membranes; format: cell-based, human; conditions: 25 μM
Description: (§2) Migration and Invasion Assays: Migration assays were performed using 24-well fluoroblok chambers (BD Biosciences, […] pore size). Cells overexpressing DDR1a, DDR1 b, vector alone (Mock) and parental cells were trypsinized and 1×10^6 cells were suspended in DMEM plus 1% serum. 100, 000 cells were placed in the upper chambers (Becton Dickenson-Fluoroblok plates-8 μm) in triplicate. DMEM with 5% serum was added to the lower chambers. After 4 hours, cells adhering to the underside of the membrane were stained with 4 μg/ml Calcein AM (Molecular Probes, Inc.) and fluorescence emitted by cells that have migrated through the chamber to the underside of the filter was measured at λs of 530/590 nm using a CytoFlor plate reader (Series 4000, Perspective Biosystems). For Invasion Assays: Rat tail Collagen type I (BD Biosciences, 10 μg/ml), human Collagen type IV (BD Biosciences, […]), human Fibronectin (BD Biosciences, 5 μg/ml) were used to coat the underside of the chambers and Fluoroblok plates previously coated with Matrigel (BD Biosciences, 24 wells) were used. […] The cells were allowed to invade through the matrices at 37° C. for 16 hrs and stained with Calcein AM and fluorescence emitted by cells was measured at Xs of 530/590 nm using a CytoFlor plate reader (Series 4000, Perspective Biosystems). […]

G140-DDR1a cells [6] = assay: Invasion assay through Collagen type 1 coated membranes; format: cell-based, human; conditions: 25 μM
Description: as §2

glioma cells = assay: Migration assay in Fluoroblok chambers; format: cell-based, human; conditions: glioma cells overexpressing DDR1a
Description: as §2

- DDR1 internalization (mean cytoplasmic intensity, cytoplasmic texture) (DDR1 [2]): induces DDR1 to appear in the cytoplasm
- time of maximal DDR1a phosphorylation (DDR1 [3]; G140-DDR1a cells): 60 min
- time of peak phosphorylation of G140-DDR1b (DDR1 [3]; G140-DDR1b cells): 90 min
Molecule: Collagen type 1: Rat tail collagen type 1, DDR1 ligand used to stimulate cells
- MMP-1, MMP-2 and MMP-9 production (MMP-1, MMP-2 and MMP-9): induced
- activation of pro-MMP-2 and Pro-MMP-1 (MMP-1, MMP-2 and MMP-9): Increased activation
- conversion of intermediate (64 kDa) to active form of MMP-2 (62 kDa) (MMP-2; 10 μg/ml, G140-DDR1a overexpressing cells): increased conversion
- MMP-2 activation (MMP-2; 10 μg/ml, G140 parental, G140-DDR1b and G140 mock cells): did not increase
- tyrosine phosphorylation of DDR1 (DDR1 [1]; listed as Type 1 Collagen): phosphorylated; also recorded: resulted in tyrosine phosphorylation of DDR1
- time of peak autophosphorylation of endogenous DDR1 (DDR1 [4]): 60 min

Molecule: EGF: EGF 20 ng/ml, used to stimulate DDR1 Glioma cells
- tyrosine phosphorylation of DDR1 (DDR1 [1]): phosphorylated; also recorded: resulted in tyrosine phosphorylation of DDR1

Molecule: Fibronectin: human Fibronectin, used to stimulate DDR1 Glioma cells
- tyrosine phosphorylation of DDR1 (DDR1 [1]): phosphorylated; also recorded: resulted in tyrosine phosphorylation of DDR1

Molecule: CNC(=O)[C@H](Cc1c[nH]c2ccccc12)NC(=O)[C@@H](CC(=O)NO)CC(C)C [GM6001]
- DDR1a stimulated activation / enzymatic activity of MMP-2 (MMP-2; 25 μm, G140-DDR1a cells, collagen 1 stimulation): effectively inhibited; also recorded: prevented
- DDR1a mediated invasion through matrigel (G140-DDR1a cells [5]): prevented
- DDR1a mediated invasion through matrigel (G140-DDR1a cells [5]; listed as GM60001): inhibited
- DDR1a mediated invasion through collagen type 1 (G140-DDR1a cells [6]): prevented
- DDR1a mediated invasion through collagen type 1 (G140-DDR1a cells [6]; listed as GM60001): inhibited
- migration of glioma cells (glioma cells): prevented
